Converted amounts (≈) assume the structure as drawn. Where two headings read alike, the source gives them in different places. Non-standard residues stand in square brackets, D forms with d. Residues, ends and D or L forms follow the SMILES beside them. ξ: configuration not given here. ξTrp(6-F) = NC(Cc1c[nH]c2cc(F)ccc12)C(=O)O
Legend:
[1] = test system: Acinetobacter baumannii (ATCC 17978); type: cell-based; conditions: ATCC 17978, 3 h, pH 7.4
Summary of the method: (§1)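 Peptides in 2-fold dilutions from 25 to […] were incubated 3 h with ~10^7 log-phase bacteria in potassium-phosphate buffer, pH 7.4. Samples were then spotted on LB agar and growth read after overnight incubation at 37 °C. MBC was the lowest concentration that completely eliminated viable bacteria.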

[2] = test system: Enterococcus faecalis (ATCC 29212); type: cell-based
Summary of the method: as §1

[3] = test system: Escherichia coli (ATCC 8739); type: cell-based
Summary of the method: as §1

[4] = test system: Klebsiella pneumoniae (NCTC 13440); type: cell-based; conditions: NCTC 13440, 3 h, pH 7.4
Summary of the method: as §1

[5] = test system: Listeria monocytogenes (ATCC 19111); type: cell-based; conditions: ATCC 19111, 3 h, pH 7.4
Summary of the method: as §1

[6] = test system: Pseudomonas aeruginosa (ATCC 27853); type: cell-based; conditions: ATCC 27853, 3 h, pH 7.4
Summary of the method: as §1

[7] = test system: Salmonella enterica (ATCC 13076); type: cell-based
Summary of the method: as §1

[8] = test system: Staphylococcus aureus (HNCMO112011); type: cell-based
Summary of the method: as §1

[9] = test system: Candida species; conditions: cited from earlier work
Description: NCR169, a cationic peptide (net charge at pH7 is 1.91) consisting of 38 amino acids with four cysteine residues, is crucial for bacteroid differentiation, and its absence results in no nitrogen fixation but premature nodule senescence. Two NMR structures of NCR169 produced in Escherichia coli resulting from different disulfide bond patterns have been determined by utilizing the ^1H-^15N heteronuclear single-quantum coherence (HSQC) NMR technique.

[10] = test system: tested bacteria (ESKAPE pathogens, Listeria monocytogenes, Salmonella enterica); design: method as in PMID 32153547; conditions: same bacterial species; cited from earlier work
[11] = test system: E. coli (ATCC 25922); type: cell-based, Escherichia coli; conditions: ATCC 25922, 3 h, pH 7.4
Description: (§2) The bacterial strains for the antimicrobial assay were obtained from the ATCC (American Type Culture Collection, Manassas, VA, USA) and NCTC (National Collection of Type Cultures, Salisbury, UK). Gram-negative strains were Pseudomonas aeruginosa (ATCC 27853), Escherichia coli (ATCC 8739, ATCC 35218, and ATCC 25922), Salmonella enterica (ATCC 13076), Klebsiella pneumoniae (NCTC 13440), Acinetobacter baumannii (ATCC 17978) and the Gram-positive strains were Enterococcus faecalis (ATCC 29212), Listeria monocytogenes (ATCC 19111), and Staphylococcus aureus (HNCMO112011 and ATCC 25923).
(§3) Determination of antibacterial activity for the peptides was carried out by utilizing a minimum bactericidal concentration (MBC) bioassay. Synthesized peptides were dissolved in sterile water and used from 25 to 0.125 μM in 2-fold dilution series and incubated with ~10^7 log phase bacteria in Potassium-Phosphate Buffer (PPB, pH: 7.4) for three hours as described earlier. After that, 5 μl of each sample was placed on LB agar and the growth of bacteria was monitored after overnight incubation at 37 °C. The lowest concentration of the antimicrobial agents that completely eliminated viable bacteria was considered the minimal bactericidal concentration (MBC).

[12] = test system: E. coli (ATCC 35218); type: cell-based, Escherichia coli; conditions: ATCC 35218, 3 h, pH 7.4
Description: as §2, §3

[13] = test system: S. aureus (ATCC 25923); type: cell-based, Staphylococcus aureus; conditions: ATCC 25923, 3 h, pH 7.4
Description: as §2, §3

[14] = test system: tested bacteria (ESKAPE pathogens, Listeria monocytogenes, Salmonella enterica); type: cell-based; conditions: 3 h, pH 7.4
Summary of the method: as §1

[15] = Enterococcus faecalis ATCC 29212, ~10^7 log phase bacteria, 3 h in potassium-phosphate buffer (PPB) pH 7.4, peptide 25 to 0.125 μM 2-fold series, 5 μl on LB agar, overnight 37 °C

Row | Compound | Minimal bactericidal concentration (MBC) A. b. [1] | Minimal bactericidal concentration (MBC) E. f. [2, 15] | Minimal bactericidal concentration (MBC) E. c. ([3]; ATCC 8739, 3 h, pH 7.4) | Minimal bactericidal concentration (MBC) K. p. [4] | Minimal bactericidal concentration (MBC) L. m. [5] | Minimal bactericidal concentration (MBC) P. a. [6] | Minimal bactericidal concentration (MBC) S. e. ([7]; Salmonella enterica ATCC 13076, ~10^7 log phase bacteria, 3 h in PPB pH 7.4, peptide 25 to 0.125 μM 2-fold series, plated on LB agar, overnight 37 °C) | Minimal bactericidal concentration (MBC) S. a. ([8]; Staphylococcus aureus HNCMO112011, ~10^7 log phase bacteria, 3 h in PPB pH 7.4, peptide 25 to 0.125 μM 2-fold series, plated on LB agar, overnight 37 °C) | antifungal activity against different Candida species [9] | MBCs compared with the NCR169 peptide derivatives [10] | MBC E.c. ATTC 25922 [11] | MBC E.c. ATTC 35218 [12] | MBC S.a. ATTC 25923 [13] | Minimal bactericidal concentration (MBC) E. f. ([2]; ATCC 29212, 3 h, pH 7.4) | Minimal bactericidal concentration (MBC) S. e. ([7]; ATCC 13076, 3 h, pH 7.4) | Minimal bactericidal concentration (MBC) S. a. ([8]; HNCMO112011, 3 h, pH 7.4) | MBC against most or all of the tested bacteria [14] | Minimal bactericidal concentration (MBC) E. c. ([3]; Escherichia coli ATCC 8739, ~10^7 log phase bacteria, 3 h in PPB pH 7.4, peptide 25 to 0.125 μM 2-fold series, plated on LB agar, overnight 37 °C)
1 | CC[C@H](C)[C@H](NC(=O)[C@H](CCCCN)NC(=O)[C@H](Cc1ccccc1)NC(=O)[C@H](CC(C)C)NC(=O)[C@@H]1CCCN1C(=O)[C@H](CCCCN)NC(=O)[C@H](CCCCN)NC(=O)[C@H](CO)NC(=O)[C@@H](N)CCCCN)C(=O)N[C@@H](C)C(=O)N[C@@H](CCCCN)C(=O)N[C@@H](CS)C(=O)N[C@H](C(=O)N[C@@H](CCC(=O)O)C(=O)N[C@@H](CC(N)=O)C(=O)N[C@H](C(=O)N[C@@H](CS)C(=O)N[C@H](C(=O)N[C@@H](CC(C)C)C(=O)N[C@@H](C)C(=O)N[C@@H](Cc1ccc(O)cc1)C(=O)N[C@@H](CCCCN)C(N)=O)C(C)C)C(C)C)C(C)C [NCR169C17–38W10,20/A] (H-KSKKPLFKIAKCVENVCVLAYK-NH2; N-terminus assumed) | 3.1 µM (≈ 7.78 µg/mL) | - (-: inactive up to 25 μM) | 3.1 µM (≈ 7.78 µg/mL) | 12.5 µM (≈ 31.4 µg/mL) | 25 µM (≈ 62.7 µg/mL) | 3.1 µM (≈ 7.78 µg/mL) | - (-: inactive up to 25 μM) | - (-: inactive up to 25 μM) | possess antifungal activity |  |  |  |  |  |  |  |  | 
2 | C[C@H]1COc2c(N3CCN(C)CC3)c(F)cc3c(=O)c(C(=O)O)cn1c23 [levofloxacin] |  |  |  |  |  |  |  |  |  | either similar or 200-fold higher |  |  |  |  |  |  |  | 
3 | CC1(C)S[C@@H]2[C@H](NC(=O)C(C(=O)O)c3ccccc3)C(=O)N2[C@H]1C(=O)O (some centres unmarked) [carbenicillin] |  |  |  |  |  |  |  |  |  | 2–4 fold |  |  |  |  |  |  |  | 
4 | CC[C@H](C)[C@H](NC(=O)[C@H](CCCCN)NC(=O)[C@H](Cc1ccccc1)NC(=O)[C@H](CC(C)C)NC(=O)[C@@H]1CCCN1C(=O)[C@H](CCCCN)NC(=O)[C@H](CCCCN)NC(=O)[C@H](CO)NC(=O)[C@@H](N)CCCCN)C(=O)NC(Cc1c[nH]c2cc(F)ccc12)C(=O)N[C@@H](CCCCN)C(=O)N[C@@H](CO)C(=O)N[C@H](C(=O)N[C@@H](CCC(=O)O)C(=O)N[C@@H](CC(N)=O)C(=O)N[C@H](C(=O)N[C@@H](CO)C(=O)N[C@H](C(=O)N[C@@H](CC(C)C)C(=O)N[C@@H](Cc1c[nH]c2ccccc12)C(=O)N[C@@H](Cc1ccc(O)cc1)C(=O)N[C@@H](CCCCN)C(N)=O)C(C)C)C(C)C)C(C)C (some centres unmarked) [NCR169C17–38C12,17/S-10W^6-F II] (H-KSKKPLFKI[ξTrp(6-F)]KSVENVSVLWYK-NH2; N-terminus assumed) | 0.8 µM (≈ 2.18 µg/mL) |  | 0.8 µM (≈ 2.18 µg/mL) | 1.6 µM (≈ 4.36 µg/mL) | 1.6 µM (≈ 4.36 µg/mL) | 1.6 µM (≈ 4.36 µg/mL) |  |  |  |  | 0.8 µM (≈ 2.18 µg/mL) | 0.8 µM (≈ 2.18 µg/mL) | 1.6 µM (≈ 4.36 µg/mL) | 0.8 µM (≈ 2.18 µg/mL) | 6.3 µM (≈ 17.2 µg/mL) | 0.8 µM (≈ 2.18 µg/mL) | 0.8 to 1.6 µM | 
5 | CC[C@H](C)[C@H](NC(=O)[C@H](CCCCN)NC(=O)[C@H](Cc1ccccc1)NC(=O)[C@H](CC(C)C)NC(=O)[C@@H]1CCCN1C(=O)[C@H](CCCCN)NC(=O)[C@H](CCCCN)NC(=O)[C@H](CO)NC(=O)[C@@H](N)CCCCN)C(=O)N[C@@H](Cc1c[nH]c2ccccc12)C(=O)N[C@@H](CCCCN)C(=O)N[C@@H](CO)C(=O)N[C@H](C(=O)N[C@@H](CCC(=O)O)C(=O)N[C@@H](CC(N)=O)C(=O)N[C@H](C(=O)N[C@@H](CO)C(=O)N[C@H](C(=O)N[C@@H](CC(C)C)C(=O)N[C@@H](Cc1c[nH]c2ccccc12)C(=O)N[C@@H](Cc1ccc(O)cc1)C(=O)N[C@@H](CCCCN)C(N)=O)C(C)C)C(C)C)C(C)C [NCR169C17–38C12,17/S] (H-KSKKPLFKIWKSVENVSVLWYK-NH2) | 1.6 µM (≈ 4.33 µg/mL) |  | 1.6 µM (≈ 4.33 µg/mL) | 3.1 µM (≈ 8.39 µg/mL) | 3.1 µM (≈ 8.39 µg/mL) | 3.1 µM (≈ 8.39 µg/mL) |  |  |  |  | 1.6 µM (≈ 4.33 µg/mL) | 3.1 µM (≈ 8.39 µg/mL) | 3.1 µM (≈ 8.39 µg/mL) | 3.1 µM (≈ 8.39 µg/mL) | 1.6 µM (≈ 4.33 µg/mL) | 1.6 µM (≈ 4.33 µg/mL) |  | 
6 | CC[C@H](C)[C@H](NC(=O)[C@H](CCCCN)NC(=O)[C@H](Cc1ccccc1)NC(=O)[C@H](CC(C)C)NC(=O)[C@@H]1CCCN1C(=O)[C@H](CCCCN)NC(=O)[C@H](CCCCN)NC(=O)[C@H](CO)NC(=O)[C@@H](N)CCCCN)C(=O)NC(Cc1c[nH]c2cc(F)ccc12)C(=O)N[C@@H](CCCCN)C(=O)N[C@@H](CO)C(=O)N[C@H](C(=O)N[C@@H](CCC(=O)O)C(=O)N[C@@H](CC(N)=O)C(=O)N[C@H](C(=O)N[C@@H](CO)C(=O)N[C@H](C(=O)N[C@@H](CC(C)C)C(=O)N[C@@H](Cc1c[nH]c2ccccc12)C(=O)N[C@@H](Cc1ccc(O)cc1)C(=O)N[C@@H](CCCCN)C(N)=O)C(C)C)C(C)C)C(C)C (some centres unmarked) [NCR169C17–38C12,17/S-10W^6-F I] (H-KSKKPLFKI[ξTrp(6-F)]KSVENVSVLWYK-NH2; N-terminus assumed) | 1.6 µM (≈ 4.36 µg/mL) |  | 0.8 µM (≈ 2.18 µg/mL) | 1.6 µM (≈ 4.36 µg/mL) | 1.6 µM (≈ 4.36 µg/mL) | 0.8 µM (≈ 2.18 µg/mL) |  |  |  |  | 0.8 µM (≈ 2.18 µg/mL) | 0.8 µM (≈ 2.18 µg/mL) | 1.6 µM (≈ 4.36 µg/mL) | 1.6 µM (≈ 4.36 µg/mL) | 1.6 µM (≈ 4.36 µg/mL) | 0.8 µM (≈ 2.18 µg/mL) | 0.8 to 1.6 µM | 
7 | CC[C@H](C)[C@H](NC(=O)[C@H](CCCCN)NC(=O)[C@H](Cc1ccccc1)NC(=O)[C@H](CC(C)C)NC(=O)[C@@H]1CCCN1C(=O)[C@H](CCCCN)NC(=O)[C@H](CCCCN)NC(=O)[C@H](CO)NC(=O)[C@@H](N)CCCCN)C(=O)N[C@@H](Cc1c[nH]c2ccccc12)C(=O)N[C@@H](CCCCN)C(=O)N[C@@H](CS)C(=O)N[C@H](C(=O)N[C@@H](CCC(=O)O)C(=O)N[C@@H](CC(N)=O)C(=O)N[C@H](C(=O)N[C@@H](CS)C(=O)N[C@H](C(=O)N[C@@H](CC(C)C)C(=O)N[C@@H](Cc1c[nH]c2ccccc12)C(=O)N[C@@H](Cc1ccc(O)cc1)C(=O)N[C@@H](CCCCN)C(N)=O)C(C)C)C(C)C)C(C)C [NCR169C17–38] (H-KSKKPLFKIWKCVENVCVLWYK-NH2; N-terminus assumed) | 3.1 µM (≈ 8.49 µg/mL) | 6.3 µM (≈ 17.3 µg/mL) |  | 3.1 µM (≈ 8.49 µg/mL) | 3.1 µM (≈ 8.49 µg/mL) | 3.1 µM (≈ 8.49 µg/mL) |  |  | possess antifungal activity |  | 1.6 µM (≈ 4.38 µg/mL) | 1.6 µM (≈ 4.38 µg/mL) | 3.1 µM (≈ 8.49 µg/mL) |  | 3.1 µM (≈ 8.49 µg/mL) | 3.1 µM (≈ 8.49 µg/mL) | 3.1 µM | 1.6 µM (≈ 4.38 µg/mL)

— publication PMC9917201, “Enhanced Antibacterial Activity of Substituted Derivatives of NCR169C Peptide” (International Journal of Molecular Sciences, 2023)
